Series [1] has as its target T1, S1P1 receptor (Homo sapiens, UniProt P21453).
T1 construct: expressed in transfected cells; host or cells: CHO-K1 (ATCC CCL-61), stably transfected
The experiment in a line: HTRF assay for direct cAMP measurement (S1P1 agonism). It counts as cell-based. The following applies: recombinant CHO-K1 cells stably transfected with S1P1 receptors; decrease of cAMP. The text has this: Compounds were screened for agonists of the S1P1 receptor (e.g., human S1P1 receptor) using the HTRF® assay for direct cAMP measurement (Gabriel et al., Assay and Drug Development Technologies, 1:291-303, 2003) and recombinant CHO-K1 cells stably transfected with S1P1 receptors. CHO-K1 cells were obtained from ATCC® (Manassas, Va.; Catalog # CCL-61). An agonist of the S1P1 receptor was detected in the HTRF® assay for direct cAMP measurement as a compound which decreased cAMP concentration. HTRF® assay also was used to determine EC50 values for S1P1 receptor agonists.
HTRF® assay kit was purchased from Cisbio-US, Inc. (Bedford, Mass.; Catalog #62AM4PEC). The HTRF® assay supported by the kit is a competitive immunoassay between endogenous cAMP produced by the CHO-K1 cells and tracer cAMP labeled with the dye d2. The tracer binding is visualized by a monoclonal anti-cAMP antibody labeled with Cryptate. The specific signal (i.e., fluorescence resonance energy transfer, FRET) is inversely proportional to the concentration of unlabeled cAMP in the standard or sample.
The fluorescence ratio (665 nm/620 nm) of the standards (0.17 to 712 nM cAMP) included in the assay was calculated and used to generate a cAMP standard curve according to the kit manufacturer's instructions. The fluorescence ratio of the samples (test compound or compound buffer) was calculated and used to deduce respective cAMP concentrations by reference to the cAMP standard curve.
The HTRF® assay was carried out using a two-step protocol essentially according to the kit manufacturer's instructions, in 20 μL total volume per well in 384-well plate format (ProxiPlates; PerkinElmer, Fremont, Calif.; catalog #6008280). […] The plate was then further incubated at room temperature for 1 hour, after which the assay plate was read.
HTRF® readout was accomplished using a PHERAstar (BMG LABTECH Inc., Durham, N.C.) or EnVision™ (PerkinElmer, Fremont Calif.) microplate reader.
In general terms: Time-resolved FRET reads energy transfer from a long-lived donor to a nearby acceptor.

For series [2], the system named is peripheral blood lymphocyte (PBL) count. The experiment in a line: Mouse peripheral lymphocyte lowering (PLL) assay. The class given is in vivo. The following applies: male BALB/c mice, oral dose, 5 hours post-dose, vs vehicle; FIGS. 1 and 2. As to the method:
Male BALB/c mice (Charles River Laboratories, Wilmington, Mass.) were housed four per cage and maintained in a humidity-controlled (40 to 60%) and temperature-controlled (68 to 72° F.) facility on a 12 h:12 h light/dark cycle (lights on at 6:30 am) with free access to food (Harlan Teklad, Orange, Calif., Rodent Diet 8604) and water. Mice were allowed one week of habituation to the animal facility before testing.
(§1) Mice were given an oral dose of Compound 5, Compound 7 or dosing vehicle (0.5% methylcellulose) in a total volume of 10 mL/kg. Peripheral blood samples were collected at 5 hours post-dose. The mice were anesthetized with isoflurane and blood was collected via cardiac puncture. A complete cell count (CBC), including lymphocyte count, was obtained using a CELL-DYN® 3700 (Abbott Laboratories, Abbott Park, Ill.) instrument. Results are presented in FIGS. 1 and 2, in which peripheral blood lymphocyte (PBL) count is shown for the 5 hour group.
as §1, with “given a 1.00 mg/kg” for “given an”, “of the 2nd enantiomer of compound 12 (isolated after resolution of compound 12 by HPLC, with a retention time of 13.9 min per the conditions reported in Example 1.29)” for “of Compound 5, Compound 7”, “(0.5% methylcellulose in sterile water)” for “(0.5% methylcellulose)”, “in FIG. 7,” for “in FIGS. 1 and 2,”

The target of series [3] is S1P3 receptor (Homo sapiens, UniProt Q99500). Conditions: attributed to agonism of the S1P3 receptor; cited from earlier work.
Series [4] relates to experimental autoimmune myasthenia gravis (EAMG). Conditions: prophylactic oral administration, 1 mg/kg, three times a week, C57BL/6 mice; cited from earlier work.

T1 sequence (P21453 whole entry): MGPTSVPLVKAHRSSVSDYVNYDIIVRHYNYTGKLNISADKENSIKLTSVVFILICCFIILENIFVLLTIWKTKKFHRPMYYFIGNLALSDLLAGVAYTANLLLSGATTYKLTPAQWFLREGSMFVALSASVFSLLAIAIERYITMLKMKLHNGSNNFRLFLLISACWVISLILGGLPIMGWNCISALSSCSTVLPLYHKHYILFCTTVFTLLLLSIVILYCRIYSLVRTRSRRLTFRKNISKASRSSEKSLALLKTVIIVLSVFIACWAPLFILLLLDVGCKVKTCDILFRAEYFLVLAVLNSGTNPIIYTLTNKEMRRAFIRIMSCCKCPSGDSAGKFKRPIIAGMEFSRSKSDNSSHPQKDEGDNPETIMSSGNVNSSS
Chain of S1P3 receptor (Q99500 whole entry): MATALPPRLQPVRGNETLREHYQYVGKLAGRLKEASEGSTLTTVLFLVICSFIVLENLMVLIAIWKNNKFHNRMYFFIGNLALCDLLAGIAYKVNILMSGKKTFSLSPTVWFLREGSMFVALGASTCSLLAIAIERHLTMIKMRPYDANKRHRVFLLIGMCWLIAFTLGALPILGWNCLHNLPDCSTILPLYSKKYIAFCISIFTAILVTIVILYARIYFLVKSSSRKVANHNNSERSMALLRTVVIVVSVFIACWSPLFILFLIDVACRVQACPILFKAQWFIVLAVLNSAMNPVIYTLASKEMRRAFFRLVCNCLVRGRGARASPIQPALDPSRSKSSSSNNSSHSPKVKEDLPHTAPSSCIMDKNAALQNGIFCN

In general, EC50 refers to the concentration needed to bring the measured effect to its halfway point. For the molecule `N#Cc1cc(COc2ccc3[nH]c4c(c3c2)CCC4CC(=O)O)cc(OC(F)(F)F)c1` (stereo not shown) [Compound 4, 2-(7-(3-cyano-5-(trifluoromethoxy)benzyloxy)-1,2,3,4-tetrahydrocyclopenta[b]indol-3-yl)acetic acid], in series [1], the EC50 is 16 nM. `O=C(O)CC1CCc2c1[nH]c1ccc(OCc3cc(C(F)(F)F)cc(C(F)(F)F)c3)cc21` (stereo not shown) [Compound 10, 2-(7-(3,5-bis(trifluoromethyl)benzyloxy)-1,2,3,4-tetrahydrocyclopenta[b]indol-3-yl)acetic acid]: the EC50 in series [1] came to 26 nM.

Regarding `CC(C)Oc1ccc(COc2ccc3[nH]c4c(c3c2)CCC4CC(=O)O)cc1C#N` (stereo not shown) [Compound 5, 2-(7-(3-cyano-4-issopropoxybenzyloxy)-1,2,3,4-tetrahydrocyclopenta[b]indol-3-yl)acetic acid], the “activity for inducing PBL lowering (lymphopenia)” value in series [2] is on record as “exhibited activity for inducing PBL lowering (lymphopenia)”. For the molecule `CCCCCCCCc1ccc(CCC(N)(CO)CO)cc1` [FTY720], the “adverse event in clinical trials” value in series [3] is given as “transient asymptomatic bradycardia”. The “development of EAMG” value in series [4] is reported as “completely prevented”. As for `N#Cc1cc(COc2ccc3[nH]c4c(c3c2)CCC4CC(=O)O)ccc1OC(F)(F)F` (stereo not shown) [Compound 7, 2-(7-(3-cyano-4-(trifluoromethoxy)benzyloxy)-1,2,3,4-tetrahydrocyclopenta[b]indol-3-yl)acetic acid], the “activity for inducing PBL lowering (lymphopenia)” value in series [2] was “exhibited activity for inducing PBL lowering (lymphopenia)”. In the case of `O=C(O)CC1CCc2c1[nH]c1ccc(OCc3ccc(C(F)(F)F)cc3C(F)(F)F)cc21` (stereo not shown) [Compound 8, 2-(7-(2,4-bis(trifluoromethyl)benzyloxy)-1,2,3,4-tetrahydrocyclopenta[b]indol-3-yl)acetic acid], in series [1], the EC50 was found to be 9 nM.

These data come from patent publication US9522133B2, “Substituted 1,2,3,4-tetrahydrocyclopenta[b]indol-3-yl)acetic acid derivatives useful in the treatment of autoimmune and inflammatory disorders” (Arena Pharmaceuticals, Inc., priority 2008, dated 2016).
